Reference: patent US11241393B2 (priority 2020, dated 2022)
Where two headings read alike, the source gives them in different places.

How the values were obtained:
human cytomegalovirus = type: cell-based
in vitro [1] = details: dog
in vitro [2] = details: human
vaccinia virus = type: cell-based; details: in vitro, cell culture
in vitro [3] = assay: in vitro
in vitro [4] = details: cattle
[5] = system: influenza virus A/Aichi/2/68 (H3N2); assay: organism not typed; type: cell-based; details: for IC50: MDCK
[6] = rat, in vivo
in vitro [7] = details: human; remark: listed apart in the source

For `CCCCCCCCCCCCCCCCCC[Si](C)(C)O[C@@H]1O[C@H](COC(C)=O)[C@@H](OC(C)=O)[C@H](OC(C)=O)[C@H]1OC(C)=O` [Sil 20, 1-O-Dimethyl(octadecyl)silyl-(2,3,4,6-O-tetraacetyl-b-D-glucopyranoside)], which “antiviral activity toward the cytomegalovirus” value (human cytomegalovirus) is on record?
Its value is “marked activity”.

What about the CC50 (MDCK cells) of the same molecule?
The CC50 was 2530 µM.

What does the source list for `CCCC[Si](C)(C)OC1OC(CO)C(O)C(O)C1O` [Sil 7, Butyldimethylsilyl-a-D-galactopyranoside]?
CC50 (in vitro [1]): 444 µM; antiviral activity against human cytomegalovirus (human cytomegalovirus): Close to borderline effect; CC50 (in vitro [2]): < 20 µM

Which results are given for `CCCCCCCCCCCC[Si](C)(C)OC1OC(CO)C(O)C(O)C1O` [Sil 9, Dodecyldimethylsilyl-a-D-glucopyranoside]?
antiviral activity versus vaccinia virus (vaccinia virus): marked activity; CC50 (in vitro [1]): 444 µM

Which “antiviral activity against human cytomegalovirus” value (human cytomegalovirus) does the source give for `CCCCCCCCCCCC[Si](C)(C)O[C@@H]1O[C@H](COC(C)=O)[C@@H](OC(C)=O)[C@H](OC(C)=O)[C@H]1OC(C)=O` [Sil 19, 1-O-Dimethyl(dodecyl)silyl-(2,3,4,6-O-tetraacetyl-b-D-glucopyranoside)] here?
The value was “Close to borderline effect”.

What about the CC50 (MDCK cells) of the same molecule?
Its CC50 is 65.5 µM.

What does the source list for `CCCCCCCCCCCC[Si](C)(C)CCOC1OC(CO)C(O)C(O)C1O` [Sil 3, 2-(Dimethyldodecylsilyl)ethyl-b-D-glucopyranoside]?
CC50 (in vitro [1]): < 20 µM; CC50 (in vitro [3]): < 20 µM; CC50 (in vitro [4]): < 20 µM; CC50 (MDCK cells; dog): 19.2 µM; SI [5]: 2.9; antiviral activity toward influenza virus A(H3N2) [5]: marked activity; IC50 [5]: 6.6 µM

With `CCCCCCCCCCCCCCCCCC[Si](CCCCCCCCCCCCCCCCCC)(OC1OC(COC(C)=O)C(OC(C)=O)C(OC(C)=O)C1OC(C)=O)OC1OC(COC(C)=O)C(OC(C)=O)C(OC(C)=O)C1OC(C)=O` [Sil 15, 1-O-Dioctadecylsilyl-di(2,3,4,6-O-tetraacetyl-b-D-galactopyranoside)] as the molecule, how does the “antiviral activity against human cytomegalovirus” value (human cytomegalovirus; in vitro, cell culture) read?
Its value is “Close to borderline effect”.

For `CCCCCCCCCCCCCCCC(=O)O[Si](OC(=O)CCCCCCCCCCCCCCC)(c1ccccc1)c1ccccc1` [Sil 27, Di(hexadecanoyloxy)diphenylsilane], which CC50 (in vitro [1]) is on record?
The CC50 was 317 µM.

And the SI (human cytomegalovirus)?
Its SI is 30.9.

And the “antiviral activity against human cytomegalovirus” value (human cytomegalovirus)?
Its value is “marked activity”.

For `N.N.[Cl-].[Cl-].[OH-].[OH-].[Pt+4]` [Standard Cis-Oxoplatin, cis-oxoplatin], which “tissues with highest platinum concentration compared with the other treatment groups” value ([6]; iv) is on record?
Its value is “highest platinum concentration in the stomach and the liver”.

And the “tissues with highest platinum concentration compared with the other treatment groups” value ([6]; po)?
Its value is “highest accumulation of platinum in the spleen and lungs”.

With `CCCCCCCCCCCC(=O)O[Si](OC(=O)CCCCCCCCCCC)(c1ccccc1)c1ccccc1` [Sil 25, Di(dodecanoyloxy)diphenylsilane] as the molecule, how does the CC50 (in vitro [1]) read?
Its CC50 is 55.9 µM.

What about the CC50 (in vitro [3]) of the same molecule?
The CC50 was < 20 µM.

And the SI [5]?
Its SI is 5.82.

What about the “antiviral activity toward influenza virus A(H3N2)” value [5] of the same molecule?
The value was “marked activity”.

And the IC50 [5]?
The IC50 was 9.6 µM.

For `CC(N)C12CC3CC(CC(C3)C1)C2` (centres unmarked) [Rimantadine, reference compound], which CC50 (in vitro [1]) is on record?
The CC50 was 94 µM.

What about the SI [5] of the same molecule?
Its SI is 3133.0.

And the IC50 [5]?
Its IC50 is 0.03 µM.

With `CCCCCCCCCCC(=O)O[Si](C)(C)OC(=O)CCCCCCCCCC` [Sil 34, Di(undecanoyloxy)dimethylsilane] as the molecule, how does the CC50 (in vitro [1]) read?
Its CC50 is 2530 µM.

What about the “antiviral activity against human cytomegalovirus” value (human cytomegalovirus) of the same molecule?
Its value is “Close to borderline effect”.

With `CCCCCCCCCC[Si](C)(C)CCOC1OC(CO)C(O)C(O)C1O` [Sil 2, 2-(Dimethyldecylsilyl)ethyl-b-D-glucopyranoside] as the molecule, how does the CC50 (in vitro [1]) read?
Its CC50 is < 20 µM.

What about the “cytotoxicity (summary in words)” value (CT cells) of the same molecule?
Its value is “wider toxicity”.

And the CC50 (in vitro [7])?
The CC50 was < 20 µM.

And the “cytotoxicity (summary in words)” value (HEp-2 cells)?
The value was “wider toxicity”.

And the CC50 (in vitro [3])?
Its CC50 is < 20 µM.

And the CC50 (in vitro [4])?
The CC50 was < 20 µM.

What about the “antiviral activity against human cytomegalovirus” value (human cytomegalovirus) of the same molecule?
Its value is “Close to borderline effect”.

And the “cytotoxicity (summary in words)” value (MDCK cells)?
The value was “wider toxicity”.

And the CC50 (MDCK cells; dog)?
The CC50 was 18 µM.

And the SI [5]?
The SI was 2.43.

What about the “antiviral activity toward influenza virus A(H3N2)” value [5] of the same molecule?
Its value is “marked activity”.

And the IC50 [5]?
Its IC50 is 7.38 µM.
